One experiment concerns the target T1, TGR5 (STC1 cell line) (Mus musculus, UniProt Q80SS6).
T1 sequence (Q80SS6 1-329): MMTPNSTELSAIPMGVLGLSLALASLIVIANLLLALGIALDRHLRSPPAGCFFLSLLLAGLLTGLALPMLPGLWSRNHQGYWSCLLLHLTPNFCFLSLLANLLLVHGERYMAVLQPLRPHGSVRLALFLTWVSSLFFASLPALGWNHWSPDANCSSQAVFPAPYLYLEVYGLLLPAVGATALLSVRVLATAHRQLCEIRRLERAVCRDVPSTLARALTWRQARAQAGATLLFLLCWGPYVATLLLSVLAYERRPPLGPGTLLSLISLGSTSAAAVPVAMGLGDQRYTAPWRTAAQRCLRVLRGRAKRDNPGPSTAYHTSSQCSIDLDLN
Briefly: STC1 cAMP Agonist EC50 Determination.

Experiment [1] has as its target T2, TGR5 (NCI-H716 cell line) (Homo sapiens, UniProt Q8TDU6).
T2 sequence (Q8TDU6 1-330): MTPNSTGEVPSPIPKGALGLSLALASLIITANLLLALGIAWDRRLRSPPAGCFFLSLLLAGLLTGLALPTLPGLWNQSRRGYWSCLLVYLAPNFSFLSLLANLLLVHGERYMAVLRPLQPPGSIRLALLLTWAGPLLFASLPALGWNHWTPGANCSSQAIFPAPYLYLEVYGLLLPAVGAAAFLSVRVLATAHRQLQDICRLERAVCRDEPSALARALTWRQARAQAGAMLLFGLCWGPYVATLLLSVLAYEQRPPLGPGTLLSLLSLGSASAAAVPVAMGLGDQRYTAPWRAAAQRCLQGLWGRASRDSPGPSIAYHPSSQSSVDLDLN
The experiment is described as follows: NCI-H716 cAMP Agonist EC50 Determination.

Structures can show the parent of a compound that is named as a salt. Bounds are passed on as bounds.

One may read the EC50 as the midpoint of the concentration-response curve. Read a high EC50 as a less potent agent.

On to `COc1cc(C2CCCc3nc(SCc4c(F)ccc(OCCOCCOCCN(C)C)c4F)n(-c4ccc(F)cc4)c32)ccc1Cl` (stereo not shown) [Example 32, 7-(4-chloro-3-methoxyphenyl)-2-([[3-(2-[2-[2-(dimethylamino)ethoxy]ethoxy]ethoxy)-2,6-difluorophenyl]methyl]sulfanyl)-1-(4-fluorophenyl)-4,5,6,7-tetrahydro-1H-1,3-benzodiazole hydrochloride], for which the values for the EC50 (on TGR5 (STC1 cell line); in experiment [1]) were 1.38 µM and 16.9 µM, respectively.
For `COc1cc(C2CCCc3nc(SCc4c(F)cc(OCCOCCOCCN(C)C)cc4F)n(-c4ccc(F)cc4)c32)ccc1Cl` (stereo not shown) [Example 33, 2-(2-(2-(4-((7-(4-chloro-3-methoxyphenyl)-1-(4-fluorophenyl)-4,5,6,7-tetrahydro-1H-benzo[d]imidazol-2-ylthio)methyl)-3,5-difluorophenoxy)ethoxy)ethoxy)-N,N-dimethylethanamine hydrochloride] the same measures were 4.9 µM and greater than 50 µM.
Regarding `COc1cc(C2CCCc3nc(SCc4c(F)cc(CCc5nnn[nH]5)cc4F)n(-c4ccc(F)cc4)c32)ccc1Cl` (stereo not shown) [Example 49, 2-(4-(2-(1H-tetrazol-5-yl)ethyl)-2,6-difluorobenzylthio)-7-(4-chloro-3-methoxyphenyl)-1-(4-fluorophenyl)-4,5,6,7-tetrahydro-1H-benzo[d]imidazole trifluoroacetic acid], the EC50 on TGR5 (STC1 cell line) is 0.94 µM; in experiment [1] it was greater than 50 µM.
For `COc1cc(C2CC(C)Cc3nc(SCc4c(F)cccc4Cl)n(-c4ccc(F)cc4)c32)ccc1Cl` (stereo not shown) [Example 61, 7-(4-chloro-3-methoxyphenyl)-2-[[(2-chloro-6-fluorophenyl)methyl]sulfanyl]-1-(4-fluorophenyl)-5-methyl-4,5,6,7-tetrahydro-1H-1,3-benzodiazole] the same measures were 3.89 µM and greater than 50 µM.
Turning to `COc1cc(C2(C)CCCc3nc(SCc4c(F)ccc(O)c4F)n(-c4ccc(F)cc4)c32)ccc1Cl` (stereo not shown) [Example 95, 3-((7-(4-chloro-3-methoxyphenyl)-1-(4-fluorophenyl)-7-methyl-4,5,6,7-tetrahydro-1H-benzo[d]imidazol-2-ylthio)methyl)-2,4-difluorophenol trifluoroacetic acid], the EC50 on TGR5 (STC1 cell line) was determined as 0.37 µM; in experiment [1] it was 12.5 µM.
For `COc1cc(C2(C)CCCc3nc(SCc4c(F)cc(C(=O)NCCOCCOCCOCCO)cc4F)n(-c4ccc(F)cc4)c32)ccc1F` (stereo not shown) [Example 123, 3,5-difluoro-4-(((7-(4-fluoro-3-methoxyphenyl)-1-(4-fluorophenyl)-7-methyl-4,5,6,7-tetrahydro-1H-benzo[d]imidazol-2-yl)thio)methyl)-N-(2-(2-(2-(2-hydroxyethoxy)ethoxy)ethoxy)ethyl) benzamide], the EC50 on TGR5 (STC1 cell line) was found to be 0.05 µM; in experiment [1] it was 17 µM.
With `C=C1COC(c2ccc(OC)c(OC)c2)c2c1nc(SCc1c(F)cccc1Cl)n2-c1ccc(F)cc1` (stereo not shown) [Example 136, 2-((2-chloro-6-fluorobenzyl)thio)-4-(3,4-dimethoxyphenyl)-3-(4-fluorophenyl)-7-methylene-3,4,6,7-tetrahydropyrano[3,4-d]imidazole], the EC50 on TGR5 (STC1 cell line) was 1.53 µM; in experiment [1], greater than 50 µM.
For `COc1ccc(C2CCCc3nc(SCc4c(F)cc(C(=O)O)cc4F)n(-c4ccc(F)cc4)c32)cc1OC` (stereo not shown) [Example 65, 4-(((7-(3,4-dimethoxyphenyl)-1-(4-fluorophenyl)-4,5,6,7-tetrahydro-1H-benzo[d]imidazol-2-yl)thi)methyl)-3,5-difluorobenzoic acid] the same measures were 3.75 µM and greater than 50 µM.
For `COc1cc(C2CCCc3nc(SCc4c(F)cc(CC/C=N/NC(=N)N)cc4F)n(-c4ccc(F)cc4)c32)ccc1Cl` (stereo not shown) [Example 47, (E)-2-(3-(4-((7-(4-chloro-3-methoxyphenyl)-1-(4-fluorophenyl)-4,5,6,7-tetrahydro-1H-benzo[d]imidazol-2-ylthio)methyl)-3,5-difluorophenyl)propylidene) hydrazinecarboximidamide hydrochloride] the same measures were 0.37 µM and 47.3 µM.
For `COc1cc(C2CCCc3nc(SCc4ncccn4)n(-c4ccc(F)cc4)c32)ccc1Cl` (stereo not shown) [Example 57, 7-(4-chloro-3-methoxyphenyl)-1-(4-fluorophenyl)-2-[(pyrimidin-2-ylmethyl)sulfanyl]-4,5,6,7-tetrahydro-1H-1,3-benzodiazole trifluoroacetic acid] the same measures were 0.65 µM and greater than 50 µM.
Regarding `CNC(=O)c1cc(F)c(CSc2nc3c(n2-c2ccc(F)cc2)C(C)(c2ccc(Cl)c(OC)c2)CCC3)c(F)c1` (stereo not shown) [Example 91, 4-((7-(4-chloro-3-methoxyphenyl)-1-(4-fluorophenyl)-7-methyl-4,5,6,7-tetrahydro-1H-benzo[d]imidazol-2-ylthio)methyl)-3,5-difluoro-N-methylbenzamide trifluoroacetic acid], the EC50 at TGR5 (STC1 cell line) is 0.23 µM; in experiment [1] it was greater than 50 µM.
For `COc1cc(C2CCCc3nc(SCc4c(F)cc(CCC#N)cc4F)n(-c4ccc(F)cc4)c32)ccc1Cl` (stereo not shown) [Example 46, 3-(4-((7-(4-chloro-3-methoxyphenyl)-1-(4-fluorophenyl)-4,5,6,7-tetrahydro-1H-benzo[d]imidazol-2-ylthio)methyl)-3,5-difluorophenyl)propanenitrile trifluoroacetic acid] the same measures were 0.14 µM and greater than 50 µM.
For `COc1cc(C2(C)CCCc3nc(SCc4c(F)cc(C(=O)N5CCOCC5)cc4F)n(-c4ccc(F)cc4)c32)ccc1Cl` (stereo not shown) [Example 93, 7-(4-chloro-3-methoxyphenyl)-2-[([2,6-difluoro-4-[(morpholin-4-yl)carbonyl]phenyl]methyl)sulfanyl]-1-(4-fluorophenyl)-7-methyl-4,5,6,7-tetrahydro-1H-1,3-benzodiazole] the same measures were 0.25 µM and greater than 50 µM.
For `COc1cc(C2CCCc3nc(SCc4c(F)cncc4Br)n(-c4ccc(F)cc4)c32)ccc1Cl` (stereo not shown) [Example 56, 2-((3-bromo-5-fluoropyridin-4-yl)methylthio)-7-(4-chloro-3-methoxyphenyl)-1-(4-fluorophenyl)-4,5,6,7-tetrahydro-1H-benzo[d]imidazole trifluoroacetic acid] the same measures were 0.13 µM and greater than 50 µM.
For `COc1cc(C2(C)CCCc3nc(SCc4c(F)cc(-c5nnn[nH]5)cc4F)n(-c4ccc(F)cc4)c32)ccc1F` (stereo not shown) [Example 121, 2-((2,6-difluoro-4-(1H-tetrazol-5-yl)benzyl)thio)-7-(4-fluoro-3-methoxyphenyl)-1-(4-fluorophenyl)-7-methyl-4,5,6,7-tetrahydro-1H-benzo[d]imidazole], the EC50 on TGR5 (STC1 cell line) was 3.11 µM; in experiment [1] it was greater than 50 µM.
For `COC(=O)[C@H](CCCNC(=N)N)NC(=O)c1cc(F)c(CSc2nc3c(n2-c2ccc(F)cc2)C(C)(c2ccc(Cl)c(OC)c2)CCC3)c(F)c1` (stereo partly drawn) [Example 82, (S)-methyl 2-(4-((7-(4-chloro-3-methoxyphenyl)-1-(4-fluorophenyl)-4,5,6,7-tetrahydro-7-methyl-1H-benzo[d]imidazol-2-ylthio)methyl)-3,5-difluorobenzamido)-5-guanidinopentanoate trifluoroacetic acid] the same measures were 0.18 µM and 15.2 µM.
For `C=C1COC(c2ccc(F)c(OC)c2)c2c1nc(SCc1c(F)cccc1Cl)n2-c1ccc(F)cc1` (stereo not shown) [Example 138, 4-(4-Fluoro-3-methoxyphenyl)-2-((2-chloro-6-fluorobenzyl)thio)-3-(4-fluorophenyl)-7-methylene-3,4,6,7-tetrahydropyrano[3,4-d]imidazole] the same measures were 3.26 µM and greater than 50 µM.
With `COc1ccc(C2CCCc3nc(SCc4c(F)cc(OCCN5CCCC5)cc4F)n(-c4ccc(F)cc4)c32)cc1OC` (stereo not shown) [Example 69, 2-((2,6-difluoro-4-(2-(pyrrolidin-1-yl)ethoxy)benzyl)thio)-7-(3,4-dimethoxyphenyl)-1-(4-fluorophenyl)-4,5,6,7-tetrahydro-1H-benzo[d]imidazole], the EC50 came out at 0.85 µM on TGR5 (STC1 cell line) and 7.97 µM in experiment [1].
For `COCCOCCOCCOCCNC(=O)c1cc(F)c(CSc2nc3c(n2-c2ccc(F)cc2)C(c2cc(OC)c(OC)c(Br)c2Br)CCC3)c(F)c1` (stereo not shown) [Example 68b, 4-(((7-(2,3-dibromo-4,5-dimethoxyphenyl)-1-(4-fluorophenyl)-4,5,6,7-tetrahydro-1H-benzo[d]imidazol-2-yl)thio)methyl)-3,5-difluoro-N-(2,5,8,11-tetraoxatridecan-13-yl) benzamide] the same measures were 28.6 µM and greater than 50 µM.
For `COc1cc(C2(C)CCCc3nc(SCc4c(F)cc(-c5nn[nH]n5)cc4F)n(-c4ccc(F)cc4)c32)ccc1Cl` (stereo not shown) [Example 90, 7-(4-chloro-3-methoxyphenyl)-2-(2,6-difluoro-4-(2H-tetrazol-5-yl)benzylthio)-1-(4-fluorophenyl)-7-methyl-4,5,6,7-tetrahydro-1H-benzo[d]imidazole trifluoroacetic acid] the same measures were 3.9 µM and greater than 50 µM.

The values above are taken from patent US10077241B2 (Janssen Pharmaceutica NV, priority 2014, dated 2018).
